# Laboratory results taken from patent US20070112018A1, “Treatment of peripheral arterial occlusive disease” (priority 2005, published 2007).
# Columns and labels:
# [1] = Single 25-mg dose under three food conditions in healthy male adults, adverse events; type: in vivo, human
# Description: In another study, a single 25-mg oral dose of rifalazil was administered to healthy male adults under one of three distinct food conditions: a high fat meal (60% fat), standard meal (30% fat), and under fasting conditions. No placebo-control was used in this study. Twelve subjects were enrolled, 10 of whom received all doses of rifalazil. Although high fat meal conditions result in higher plasma levels of rifalazil, the incidence of AEs was similar across all food conditions. A total of 83% of subjects (10/12) experienced treatment-emergent AEs, all of mild to moderate intensity. Fifty-eight percent were considered by the investigator to be drug-related. The most common reported drug-related AEs were back pain (25%) and headache (17%), and these were reported only in subjects under fed conditions. All other study medication-related AEs were reported by one subject (8%) only.
# [2] = Tissue concentrations after multiple oral doses in the monkey; type: in vivo
# Description: In rats and dogs, the Vdβ/F following oral administration was 40-80 L/kg. […] The highest mean Cmax observed was in the wall of the GI tract and occurred approximately 1 hour post-dose. […] A large tissue compartment of rifalazil is considered important for efficacy against Chlamydia given the intracellular nature of Chlamydia infection.
# C. pneumoniae = assay: Potency against C. pneumoniae compared with roxithromycin
# Text: The use of rifalazil in the treatment of PAOD is supported by both preclinical and clinical lines of evidence.
# [3] = Phase 1 pharmacokinetic analyses by gender, single or multiple doses 2.5-50 mg; type: in vivo, human
# Description: There were no significant differences between males and females for AUC0-∞ when data were normalized to 1 mg/kg following single doses of 2.5 to 50 mg rifalazil (see FIG. 3 and FIG. 4).
# The Vdβ/F was large indicating extensive distribution in the body. […] The mean minimum plasma concentrations (Cmin) of rifalazil over time during 5 days of dosing with 2.5 and 5 mg rifalazil increased from Days 2-6 in both males and females at both dose levels.
# [4] = Degradation to 25-desacetyl derivative under acidic and basic conditions; type: physicochemical
# Text: Rifalazil degrades to a 25-desacetyl derivative under both acidic and basic conditions. Typical of ester hydrolysis, the degradation in highly alkaline solutions is rapid while at an acidic pH, e.g., pH 1, the degradation at room temperature is slower, approximately 6% in one hour.
# [5] = 25 mg cumulative doses over one week, adverse events by regimen; type: in vivo, human
# Description: Different dosing regimens of rifalazil that achieve 25-mg cumulative doses in 1 week also provide relevant clinical information on the safety of 25 mg administered as a single dose once per week.
# For a cumulative dose of 25 mg, the overall incidence of AEs was somewhat lower when rifalazil was administered as 5 mg QD for 5 days, compared with a single dose of 25 mg (75%). Similarly, the overall incidence of drug-related AEs was lower when 25 mg was administered as a 5 mg for 5 days (63%), vs. 12.5 mg as 2 doses (separated by 72 hours) (70%), and as a single dose of 25 mg (75%).
# [6] = Phase 1 Study ABI-1648-006, single oral dose pharmacokinetics; conditions: for half-life / Tmax / CL/F / AUC(0-inf) / Cmax: human, plasma; for AUC0−∞/Dose Mean / Cmax/Dose Mean: normalized to mg/kg
# Description: Study ABI-1648-006 was conducted to evaluate the PK of single and multiple oral doses of 2.5, 5, 12.5, and 25 mg administered to healthy male and female volunteers.
# [7] = females, single oral dose 2.5 mg
# [8] = females, single oral dose 12.5 mg
# [9] = females, single oral dose 25 mg
# [10] = males, single oral dose 12.5 mg
structure (smiles),measurement,setting,value
"CO[C@H]1/C=C/O[C@@]2(C)Oc3c(C)c(O)c4c(=O)c(c5oc6cc(N7CCN(CC(C)C)CC7)cc(O)c6nc-5c4c3C2=O)NC(=O)/C(C)=C\C=C\[C@H](C)[C@H](O)[C@@H](C)[C@@H](O)[C@@H](C)[C@H](OC(C)=O)[C@@H]1C [rifalazil, 3′-hydroxy-5′-(4-isobutyl-1-piperazinyl) benzoxazinorifamycin]",AEs considered by the investigator to be drug-related,[1],Fifty-eight
same,"all other study medication-related AEs (each, one subject)",[1],8%
same,subjects experiencing treatment-emergent AEs,[1]; all food conditions (10/12),83%
same,drug-related back pain,[1]; only under fed conditions,25%
same,drug-related headache,[1]; only under fed conditions,17%
same,concentrations in genitourinary and GI tissues and coronary arteries versus plasma,[2],exceeded concentrations in plasma
same,potency against C. pneumoniae relative to roxithromycin,C. pneumoniae,2000 times
same,steady state,[3]; after 5 days of dosing with 2.5 and 5 mg,does not appear that steady state was reached
same,half-life,"[3]; both sexes, human, plasma, oral, following single doses, read-out: mean elimination t1/2",100 to 150 h
same,half-life,"[3]; both sexes, human, plasma, oral, multiple dosing, up to 5 days, read-out: mean elimination t1/2",87 to 174 h
same,half-life,"[3]; both sexes, human, plasma, oral, read-out: t1/2 (converted)",~100 h
same,Tmax,"[3]; both sexes, human, plasma, oral, single or multiple doses 2.5-50 mg, males and females, read-out: mean time to maximum concentration (Tmax)",4 to 6 h
same,Vdβ/F,[3]; in vivo,large
same,exposure (mean Cmax and AUC0-∞) as a function of dose,"[3]; males and females, 2.5 to 50 mg, increase not dose proportional",increased with rifalazil dose
same,degradation in highly alkaline solutions,[4]; highly alkaline solutions,rapid
same,degradation to 25-desacetyl derivative,"[4]; pH 1, room temperature, in one hour",approximately 6%
same,incidence of flu-like symptoms,[5]; 5 mg QD for 5 days (5/15 patients),33%
same,overall incidence of drug-related AEs,[5]; 5 mg for 5 days,63%
same,overall incidence of drug-related AEs,[5]; 12.5 mg as 2 doses separated by 72 hours,70%
same,incidence of flu-like symptoms,[5]; 12.5 mg×2 dose regimen,15%
same,incidence of flu-like symptoms,[5]; 25 mg single-dose (3/16 patients),19%
same,overall incidence of AEs,[5]; single dose of 25 mg,75%
same,overall incidence of drug-related AEs,[5]; single dose of 25 mg,75%
same,Time to maximum concentration,[6]; after single dose administration (study conclusions),4 to 6 h
same,half-life,"[6]; both, oral, elimination t1/2, study conclusions",100 to 150 h
same,Tmax,"[6]; both, po",4.8 to 6.2 h
same,half-life,"[6]; both, po, mean distribution t1/2, range across groups, single oral doses 2.5-25 mg, males and females",4.5 to 8.6 h
same,half-life,"[6]; both, po, mean elimination t1/2, range across groups, single oral doses 2.5-25 mg, males and females",101 to 150 h
same,CL/F,"[6]; female, po, 2.5 mg",4.17 mL/min/kg
same,Tmax,"[6]; female, po, 2.5 mg",4.8 h
same,AUC(0-inf),"[6]; female, po, 2.5 mg, AUC0−∞ GMean (geometric mean), females, single oral dose 2.5 mg",168 ng·h/mL
same,AUC(0-inf),"[6]; female, po, 2.5 mg, AUC0−∞ Mean, females, single oral dose 2.5 mg",174 ng·h/mL
same,Cmax,"[6]; female, po, 2.5 mg, Cmax GMean (geometric mean), females, single oral dose 2.5 mg",7.1 ng/mL
same,Cmax,"[6]; female, po, 2.5 mg, Cmax Mean, females, single oral dose 2.5 mg",7.5 ng/mL
same,half-life,"[6]; female, po, 2.5 mg, Distribution t1/2 Mean, females, single oral dose 2.5 mg",5 h
same,half-life,"[6]; female, po, 2.5 mg, Elimination t1/2 Mean, females, single oral dose 2.5 mg",133 h
same,CL/F,"[6]; female, po, 5 mg",3.83 mL/min/kg
same,Tmax,"[6]; female, po, 5 mg",5 h
same,AUC(0-inf),"[6]; female, po, 5 mg, AUC0−∞ GMean (geometric mean), females, single oral dose 5 mg",373 ng·h/mL
same,AUC(0-inf),"[6]; female, po, 5 mg, AUC0−∞ Mean, females, single oral dose 5 mg",397 ng·h/mL
same,Cmax,"[6]; female, po, 5 mg, Cmax GMean (geometric mean), females, single oral dose 5 mg",13.5 ng/mL
same,Cmax,"[6]; female, po, 5 mg, Cmax Mean, females, single oral dose 5 mg",14.6 ng/mL
same,half-life,"[6]; female, po, 5 mg, Distribution t1/2 Mean, females, single oral dose 5 mg",4.5 h
same,half-life,"[6]; female, po, 5 mg, Elimination t1/2 Mean, females, single oral dose 5 mg",137 h
same,CL/F,"[6]; female, po, 12.5 mg",6.5 mL/min/kg
same,Tmax,"[6]; female, po, 12.5 mg",6.2 h
same,AUC(0-inf),"[6]; female, po, 12.5 mg, AUC0−∞ GMean (geometric mean), females, single oral dose 12.5 mg",526 ng·h/mL
same,AUC(0-inf),"[6]; female, po, 12.5 mg, AUC0−∞ Mean, females, single oral dose 12.5 mg",540 ng·h/mL
same,Cmax,"[6]; female, po, 12.5 mg, Cmax GMean (geometric mean), females, single oral dose 12.5 mg",19.9 ng/mL
same,Cmax,"[6]; female, po, 12.5 mg, Cmax Mean, females, single oral dose 12.5 mg",20.8 ng/mL
same,half-life,"[6]; female, po, 12.5 mg, Distribution t1/2 Mean, females, single oral dose 12.5 mg",6.1 h
same,half-life,"[6]; female, po, 12.5 mg, Elimination t1/2 Mean, females, single oral dose 12.5 mg",110 h
same,CL/F,"[6]; female, po, 25 mg",7.17 mL/min/kg
same,Tmax,"[6]; female, po, 25 mg",4.8 h
same,AUC(0-inf),"[6]; female, po, 25 mg, AUC0−∞ GMean (geometric mean), females, single oral dose 25 mg",1020 ng·h/mL
same,AUC(0-inf),"[6]; female, po, 25 mg, AUC0−∞ Mean, females, single oral dose 25 mg",1100 ng·h/mL
same,Cmax,"[6]; female, po, 25 mg, Cmax GMean (geometric mean), females, single oral dose 25 mg",33.3 ng/mL
same,Cmax,"[6]; female, po, 25 mg, Cmax Mean, females, single oral dose 25 mg",36.5 ng/mL
same,half-life,"[6]; female, po, 25 mg, Distribution t1/2 Mean, females, single oral dose 25 mg",7.8 h
same,half-life,"[6]; female, po, 25 mg, Elimination t1/2 Mean, females, single oral dose 25 mg",150 h
same,Vdβ/F Mean,[6]; [7],45.0 L/kg
same,AUC0−∞/Dose Mean,[6]; [7],4274.6
same,Cmax/Dose Mean,[6]; [7],183.1
same,Vdβ/F Mean,"[6]; females, single oral dose 5 mg",41.6 L/kg
same,AUC0−∞/Dose Mean,"[6]; females, single oral dose 5 mg",5124.5
same,Cmax/Dose Mean,"[6]; females, single oral dose 5 mg",185.1
same,Vdβ/F Mean,[6]; [8],61.6 L/kg
same,AUC0−∞/Dose Mean,[6]; [8],2759.4
same,Cmax/Dose Mean,[6]; [8],106.9
same,Vdβ/F Mean,[6]; [9],82.8 L/kg
same,AUC0−∞/Dose Mean,[6]; [9],2796.3
same,Cmax/Dose Mean,[6]; [9],91.3
same,CL/F,"[6]; male, po, 2.5 mg",3.5 mL/min/kg
same,Tmax,"[6]; male, po, 2.5 mg",5.3 h
same,AUC(0-inf),"[6]; male, po, 2.5 mg, AUC0−∞ GMean (geometric mean), males, single oral dose 2.5 mg",172 ng·h/mL
same,AUC(0-inf),"[6]; male, po, 2.5 mg, AUC0−∞ Mean, males, single oral dose 2.5 mg",188 ng·h/mL
same,Cmax,"[6]; male, po, 2.5 mg, Cmax GMean (geometric mean), males, single oral dose 2.5 mg",7.8 ng/mL
same,Cmax,"[6]; male, po, 2.5 mg, Cmax Mean, males, single oral dose 2.5 mg",8.4 ng/mL
same,half-life,"[6]; male, po, 2.5 mg, Distribution t1/2 Mean, males, single oral dose 2.5 mg",5.3 h
same,half-life,"[6]; male, po, 2.5 mg, Elimination t1/2 Mean, males, single oral dose 2.5 mg",101 h
same,CL/F,"[6]; male, po, 12.5 mg",5.5 mL/min/kg
same,Tmax,"[6]; male, po, 12.5 mg",5 h
same,AUC(0-inf),"[6]; male, po, 12.5 mg, AUC0−∞ GMean (geometric mean), males, single oral dose 12.5 mg",528 ng·h/mL
same,AUC(0-inf),"[6]; male, po, 12.5 mg, AUC0−∞ Mean, males, single oral dose 12.5 mg",552 ng·h/mL
same,Cmax,"[6]; male, po, 12.5 mg, Cmax GMean (geometric mean), males, single oral dose 12.5 mg",19.2 ng/mL
same,Cmax,"[6]; male, po, 12.5 mg, Cmax Mean, males, single oral dose 12.5 mg",19.7 ng/mL
same,half-life,"[6]; male, po, 12.5 mg, Distribution t1/2 Mean, males, single oral dose 12.5 mg",7.7 h
same,half-life,"[6]; male, po, 12.5 mg, Elimination t1/2 Mean, males, single oral dose 12.5 mg",134 h
same,CL/F,"[6]; male, po, 25 mg",8 mL/min/kg
same,Tmax,"[6]; male, po, 25 mg",5 h
same,AUC(0-inf),"[6]; male, po, 25 mg, AUC0−∞ GMean (geometric mean), males, single oral dose 25 mg",656 ng·h/mL
same,AUC(0-inf),"[6]; male, po, 25 mg, AUC0−∞ Mean, males, single oral dose 25 mg",683 ng·h/mL
same,Cmax,"[6]; male, po, 25 mg, Cmax GMean (geometric mean), males, single oral dose 25 mg",23.9 ng/mL
same,Cmax,"[6]; male, po, 25 mg, Cmax Mean, males, single oral dose 25 mg",24.7 ng/mL
same,half-life,"[6]; male, po, 25 mg, Distribution t1/2 Mean, males, single oral dose 25 mg",8.7 h
same,half-life,"[6]; male, po, 25 mg, Elimination t1/2 Mean, males, single oral dose 25 mg",116 h
same,Vdβ/F Mean,"[6]; males, single oral dose 2.5 mg",25.4 L/kg
same,AUC0−∞/Dose Mean,"[6]; males, single oral dose 2.5 mg",6084.0
same,Cmax/Dose Mean,"[6]; males, single oral dose 2.5 mg",269.6
same,Vdβ/F Mean,[6]; [10],62.3 L/kg
same,AUC0−∞/Dose Mean,[6]; [10],3299.8
same,Cmax/Dose Mean,[6]; [10],117.4
same,Vdβ/F Mean,"[6]; males, single oral dose 25 mg",74.2 L/kg
same,AUC0−∞/Dose Mean,"[6]; males, single oral dose 25 mg",2273.8
same,Cmax/Dose Mean,"[6]; males, single oral dose 25 mg",82.0
